Test results from patent publication US20220288228A1, “METHODS OF CANCER TREATMENT BY DELIVERY OF siRNAs AGAINST BCLXL AND MCL1 USING A POLYPEPTIDE NANOPARTICLE” (Sirnaomics, Inc., priority 2021, published 2022).

Assays:
[1] = biological target: BCLxL (Homo sapiens, UniProt Q07817); conditions: consequence of its inhibition of BCLxL; cited from earlier work
[2] = system: FaDu H&N cancer cells; experiment: Sensitivity of FaDu cells to cisplatin with siRNAs; type: cell-based
Experimental: BCLxL and MCL1 siRNAs were mixed together in Lipofectamine RNAiMax and used to transfect FaDu H&N cancer cells. Final combined siRNA concentrations of 0.05 nM, 0.15 nM and 0.45 nM were compared with the effect of a non-silencing (NS) siRNA administered at the same concentrations. The effect of treatment with siRNAs on sensitivity to cisplatin (at 0-64 μM) also were evaluated.

BCLxL, sequence (Q07817 whole entry, species assumed): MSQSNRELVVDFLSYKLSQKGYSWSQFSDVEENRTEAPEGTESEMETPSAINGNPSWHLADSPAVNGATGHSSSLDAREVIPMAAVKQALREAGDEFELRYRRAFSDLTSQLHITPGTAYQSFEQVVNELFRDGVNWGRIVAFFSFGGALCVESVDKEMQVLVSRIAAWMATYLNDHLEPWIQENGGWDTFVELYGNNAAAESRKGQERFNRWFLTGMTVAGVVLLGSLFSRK

SMILES | thrombocytopenia [1] | amount of cisplatin required to cause 100% inhibition of the tumor cell viability ([2]; in the presence of 0.45 nM NS siRNA) [µM] | amount of cisplatin required to cause 100% inhibition of the tumor cell viability ([2]; in the presence of 0.45 nM of BCLxL/MCL1 siRNAs) [µM]
CC1(C)CCC(c2ccc(Cl)cc2)=C(CN2CCN(c3ccc(C(=O)NS(=O)(=O)c4ccc(N[C@H](CCN5CCOCC5)CSc5ccccc5)c(S(=O)(=O)C(F)(F)F)c4)cc3)CC2)C1 [ABT263] | induces thrombocytopenia | – | –
N.N.[Cl][Pt][Cl] [cisplatin] | – | ~32 | < 1
